Measurements: PubChem BioAssay (NCI)
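All cell lines were grown in 96-well plates and treated with compound for 48 hours. TGI: concentration producing complete growth inhibition.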

What was measured:
Assay in all cases: NCI anticancer screen, dose series, 48 h
[1] = system: ACHN renal
[2] = system: SW-620 colon
[3] = system: SF-295 CNS
[4] = system: UACC-62 melanoma
[5] = system: CAKI-1 renal
[6] = system: NCI-H460 lung
[7] = system: COLO 205 colon
[8] = system: OVCAR-5 ovarian
[9] = system: EKVX NSCLC
[10] = system: A549 NSCLC
[11] = system: U251 CNS
[12] = system: SF-268 CNS
[13] = system: SK-MEL-5 melanoma
[14] = system: OVCAR-4 ovarian
[15] = system: UO-31 renal
[16] = system: IGROV1 ovarian
[17] = system: SR leukemia
[18] = system: SN12C renal
[19] = system: UACC-257 melanoma
[20] = system: PC-3 prostate
[21] = system: DU-145 prostate
[22] = system: SNB-75 CNS
[23] = system: NCI-H522 lung
[24] = system: CCRF-CEM leukemia
[25] = system: RXF 393 renal
[26] = system: OVCAR-8 ovarian
[27] = system: MDA-MB-435
[28] = system: HS 578T breast
[29] = system: A498 renal
[30] = system: MALME-3M melanoma
[31] = system: HOP-92 NSCLC
[32] = system: MDA-N
[33] = system: HCT-15 colon
[34] = system: HOP-62 NSCLC
[35] = system: SK-MEL-28 melanoma
[36] = system: M14 melanoma
[37] = system: NCI-H226 lung
[38] = system: SNB-19 CNS
[39] = system: SK-OV-3 ovarian
[40] = system: HL-60(TB) leukemia
[41] = system: MOLT-4 leukemia
[42] = system: MCF7 breast
[43] = system: SF-539 CNS
[44] = system: KM12 colon
[45] = system: NCI-H23 lung
[46] = system: 786-0 renal
[47] = system: T-47D breast
[48] = system: HCT-116 colon
[49] = system: SK-MEL-2 melanoma
[50] = system: MDA-MB-231 breast
[51] = system: OVCAR-3 ovarian
[52] = system: K-562 leukemia
[53] = system: TK-10 renal
[54] = system: HT29 colon
[55] = system: LOX IMVI melanoma
[56] = system: NCI/ADR-RES ovarian
[57] = system: HCC-2998 colon
[58] = system: RPMI-8226 leukemia

COc1ccc(Oc2cccc(C3C4C(=O)N(c5ccc(C)c(Cl)c5)C(=O)C4ON3C(C(N)=O)c3ccccc3)c2)cc1 (stereo not drawn)
TGI [1]: > 50 µM
TGI [2]: > 50 µM
TGI [3]: > 50 µM
TGI [4]: 34.9 µM
TGI [5]: > 50 µM
TGI [6]: > 50 µM
TGI [7]: 42.6 µM
TGI [8]: > 50 µM
TGI [9]: 26.6 µM
TGI [10]: > 50 µM
TGI [11]: > 50 µM
TGI [12]: > 50 µM
TGI [13]: 32.2 µM
TGI [14]: > 50 µM
TGI [15]: > 50 µM
TGI [16]: > 50 µM
TGI [17]: 35.6 µM
TGI [18]: 29.3 µM
TGI [19]: 29.3 µM
TGI [20]: > 50 µM
TGI [21]: 44.5 µM
TGI [22]: 26.2 µM
TGI [23]: 32.6 µM
TGI [24]: > 50 µM
TGI [25]: 30.1 µM
TGI [26]: > 50 µM
TGI [27]: > 50 µM
TGI [28]: > 50 µM
TGI [29]: > 50 µM
TGI [30]: > 50 µM
TGI [31]: > 50 µM
TGI [32]: 23.6 µM
TGI [33]: 25.9 µM
TGI [34]: > 50 µM
TGI [35]: > 50 µM
TGI [36]: > 50 µM
TGI [37]: 44.8 µM
TGI [38]: > 50 µM
TGI [39]: > 50 µM
TGI [40]: > 50 µM
TGI [41]: 43.4 µM
TGI [42]: 47.9 µM
TGI [43]: 21.8 µM
TGI [44]: > 50 µM
TGI [45]: 20.2 µM
TGI [46]: > 50 µM
TGI [47]: 33 µM
TGI [48]: 45.2 µM
TGI [49]: 38.3 µM
TGI [50]: > 50 µM
TGI [51]: > 50 µM
TGI [52]: > 50 µM
TGI [53]: > 50 µM
TGI [54]: 19.8 µM
TGI [55]: > 50 µM

Nc1nc(Nc2ccccc2)c2[nH]cnc2n1
TGI [1]: > 100 µM
TGI [2]: > 100 µM
TGI [3]: > 100 µM
TGI [4]: > 100 µM
TGI [56]: > 100 µM
TGI [5]: > 100 µM
TGI [7]: > 100 µM
TGI [9]: > 100 µM
TGI [10]: > 100 µM
TGI [11]: > 100 µM
TGI [13]: > 100 µM
TGI [14]: > 100 µM
TGI [15]: > 100 µM
TGI [16]: > 100 µM
TGI [18]: > 100 µM
TGI [19]: > 100 µM
TGI [20]: > 100 µM
TGI [57]: > 100 µM
TGI [21]: > 100 µM
TGI [22]: > 100 µM
TGI [23]: > 100 µM
TGI [58]: > 100 µM
TGI [24]: > 100 µM
TGI [25]: > 100 µM
TGI [26]: > 100 µM
TGI [27]: > 100 µM
TGI [29]: 81.7 µM
TGI [30]: > 100 µM
TGI [31]: 92.4 µM
TGI [32]: > 100 µM
TGI [33]: > 100 µM
TGI [34]: > 100 µM
TGI [35]: > 100 µM
TGI [36]: > 100 µM
TGI [37]: > 100 µM
TGI [38]: > 100 µM
TGI [39]: > 100 µM
TGI [40]: > 100 µM
TGI [41]: > 100 µM
TGI [42]: > 100 µM
TGI [43]: > 100 µM
TGI [44]: > 100 µM
TGI [45]: > 100 µM
TGI [46]: > 100 µM
TGI [47]: > 100 µM
TGI [48]: > 100 µM
TGI [49]: > 100 µM
TGI [50]: > 100 µM
TGI [51]: > 100 µM
TGI [52]: > 100 µM
TGI [53]: > 100 µM
TGI [54]: > 100 µM
TGI [55]: > 100 µM
